{"source": "patent US12228580B2", "about": "“Methods of assigning a COVID pathological type based on a cytokine/chemokine panel” (IncellDx, Inc., priority 2020, dated 2025)", "key": {"[1]": {"tested_on": "Long Hauler patients suffering from chronic COVID-19", "experiment": "Treatment of Long Hauler patients for chronic COVID-19: symptoms", "type": "in vivo, human", "conditions": "300 mg twice a day for 2 weeks", "experimental": "(§1) Long Hauler patients suffering from chronic COVID-19 were treated for 2 weeks with 300 mg of Maraviroc (SELZENTRY®) twice a day. […] The results are provided below, which provide patient profiles and LHI (long haul index) as determined using the panel described in the preceding example. LHI is also referred to as “Long Hauler Score” or S1, where S1=(IFN-gamma+IL-2)/CCL4-MIP-1β."}, "[2]": {"tested_on": "plasma cytokines/chemokines of Chronic COVID patients", "experiment": "14-plex cytokine/chemokine panel in plasma and long hauler index (S1) of treated Chronic COVID patients", "type": "in vivo, human", "conditions": "300 mg twice a day for 2 weeks; for S1 (long haul index, LHI; (IFN-gamma+IL-2)/CCL4-MIP-1β): Normals 0.1", "description": "Fresh plasma was used for cytokine quantification using a customized 14-plex bead based flow cytometric assay (IncelIKINE, IncellDx, Inc) on a CytoFlex flow cytometer as previously described using the following analytes: ‘TNF-α’, ‘IL-4’, ‘IL-13’, ‘IL-2’, ‘GM-CSF’, ‘sCD40L’, ‘CCL5 (RANTES)’, ‘CCL3 (MIP-1α)’, ‘IL-6’, ‘IL-10’, ‘IFN-γ’, ‘VEGF’, ‘IL-8’, and ‘CCL4 (MIP-1β) (Patterson et al., “CCR5 inhibition in Critical COVID-19 Patients Decreases Inflammatory Cytokines, Increases CD8 T-Cells, and Decreases SARS-CoV2 RNA in Plasma by Day 14”, Int J Infect Dis (2020) doi: 10.1016/j.ijid.2020.10.101). For each patient sample, 25 μL of plasma was used in each well of a 96-well plate. Standard curves with serial 6-point dilutions of antigen were run on each plate for each cytokine. Raw data was analyzed using LegendPlex software (Biolegend, Inc San Diego Calif.). Samples were run in duplicate.\nas §1"}}, "data": [{"substance": "Maraviroc", "values": [{"measurement": "symptoms in long haulers", "setting": "[1]", "value": "alleviated or completely resolved symptoms"}, {"measurement": "CCL5/RANTES in Chronic COVID patients successfully treated", "setting": "[2]; Chronic COVID patients", "value": "Decreased CCL5/RANTES in Chronic COVID patients successfully treated"}, {"measurement": "long hauler Indices (LHI, S1)", "setting": "[2]; Long Hauler patients", "value": "reduced"}, {"measurement": "S1 (long haul index, LHI; (IFN-gamma+IL-2)/CCL4-MIP-1β)", "setting": "[2]; patient two, second sample (AB2), first sample AB1 4.0", "value": 0.3}, {"measurement": "GM-CSF", "setting": "[2]; patient two, second sample (AB2), first sample AB1 6.02", "value": 15.09, "unit": "pg/mL"}, {"measurement": "TNF-α", "setting": "[2]; patient two, second sample (AB2), first sample AB1 7.75", "value": 17.13, "unit": "pg/mL"}, {"measurement": "IL-10", "setting": "[2]; patient two, second sample (AB2), first sample AB1 7.90", "value": "<0.61", "unit": "pg/mL"}, {"measurement": "IL-6", "setting": "[2]; patient two, second sample (AB2), first sample AB1 10.88", "value": "<0.6", "unit": "pg/mL"}, {"measurement": "IL-4", "setting": "[2]; patient two, second sample (AB2), first sample AB1 11.06", "value": 4.12, "unit": "pg/mL"}, {"measurement": "IL-2", "setting": "[2]; patient two, second sample (AB2), first sample AB1 12.57", "value": 2.15, "unit": "pg/mL"}, {"measurement": "CCL4 (MIP-1β)", "setting": "[2]; patient two, second sample (AB2), first sample AB1 15.52", "value": 8.43, "unit": "pg/mL"}, {"measurement": "IFN-γ", "setting": "[2]; patient two, second sample (AB2), first sample AB1 48.78", "value": "<0.92", "unit": "pg/mL"}, {"measurement": "VEGF", "setting": "[2]; patient two, second sample (AB2), first sample AB1 60.41", "value": 22.98, "unit": "pg/mL"}, {"measurement": "CCL3 (MIP-1α)", "setting": "[2]; patient two, second sample (AB2), first sample AB1 87.65", "value": "<1.22", "unit": "pg/mL"}, {"measurement": "CCL5 (RANTES)", "setting": "[2]; patient two, second sample (AB2), first sample AB1 13082.39", "value": 12261.36, "unit": "pg/mL"}, {"measurement": "sCD40L", "setting": "[2]; patient two, second sample (AB2), first sample AB1 13488.", "value": "12631.", "unit": "pg/ml"}, {"measurement": "IL-13", "setting": "[2]; patient two, second sample (AB2), first sample AB1 <3.07", "value": 4.35, "unit": "pg/mL"}, {"measurement": "IL-8", "setting": "[2]; patient two, second sample (AB2), first sample AB1 <15.74", "value": 18.37, "unit": "pg/mL"}, {"measurement": "CCL4 (MIP-1β)", "setting": "[2]; unlabelled patient, second line, first line 3.62", "value": 9.79, "unit": "pg/mL"}, {"measurement": "IL-13", "setting": "[2]; unlabelled patient, second line, first line 5.56", "value": 4.22, "unit": "pg/mL"}, {"measurement": "GM-CSF", "setting": "[2]; unlabelled patient, second line, first line 10.40", "value": 9.07, "unit": "pg/mL"}, {"measurement": "S1 (long haul index, LHI; (IFN-gamma+IL-2)/CCL4-MIP-1β)", "setting": "[2]; unlabelled patient, second line, first line 11.4", "value": 1.3}, {"measurement": "TNF-α", "setting": "[2]; unlabelled patient, second line, first line 17.86", "value": 17.50, "unit": "pg/mL"}, {"measurement": "IL-2", "setting": "[2]; unlabelled patient, second line, first line 33.94", "value": 4.89, "unit": "pg/mL"}, {"measurement": "VEGF", "setting": "[2]; unlabelled patient, second line, first line 39.00", "value": 31.62, "unit": "pg/mL"}, {"measurement": "sCD40L", "setting": "[2]; unlabelled patient, second line, first line 8980.", "value": "41374.", "unit": "pg/ml"}, {"measurement": "CCL5 (RANTES)", "setting": "[2]; unlabelled patient, second line, first line 14334.86", "value": 10011.91, "unit": "pg/mL"}, {"measurement": "IL-10", "setting": "[2]; unlabelled patient, second line, first line <1.20", "value": "<2.49", "unit": "pg/mL"}, {"measurement": "IL-8", "setting": "[2]; unlabelled patient, second line, first line <3.82", "value": "<9.98", "unit": "pg/mL"}, {"measurement": "IL-6", "setting": "[2]; unlabelled patient, second line, first line <4.66", "value": "<3.60", "unit": "pg/mL"}, {"measurement": "IL-4", "setting": "[2]; unlabelled patient, second line, first line <5.02", "value": "<1.22", "unit": "pg/mL"}, {"measurement": "IFN-γ", "setting": "[2]; unlabelled patient, second line, first line <7.30", "value": "<7.77", "unit": "pg/mL"}, {"measurement": "CCL3 (MIP-1α)", "setting": "[2]; unlabelled patient, second line, first line <34.82", "value": "<45.08", "unit": "pg/mL"}]}]}
